Experimental findings from PubChem BioAssay (NCI) are described below.

Values joined by “and” are separate entries in the source; they are usually repeats but may differ in a detail not shown here. Identical values can stand only once.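 Protocol summary: plate cells (96-well), add compound at 5 concentrations, incubate 48 h, interpolate endpoints linearly. Abbreviation: GI50, concentration required for 50% inhibition of growth. TGI marks complete inhibition of growth.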

What all share (assay): DTP human tumour cell line panel, 48 h
Experiment [1] deals with HOP-62 NSCLC.
For experiment [2], the system named is SF-295 CNS.
Experiment [3] has as its system SF-539 CNS.
Experiment [4] has as its system HOP-92 NSCLC.
Experiment [5] deals with MCF7 breast.
The subject of experiment [6] is KM12 colon.
For experiment [7], the system named is SN12C renal.
Experiment [8] deals with NCI-H522 lung.
In experiment [9] the test system is UACC-62 melanoma.
Experiment [10] relates to RPMI-8226 leukemia.

The GI50 is the concentration at which growth is held to half of that of the control. For orientation: TGI means the concentration giving total growth inhibition. Lower therefore signals greater sensitivity of the cells. `O=C(c1ccco1)c1c(C(F)(F)F)n([O-])c2ccc(C(F)(F)F)cc2[n+]1=O`: the GI50 is 1470 nM in [1]; 0.626 µM in [2]; 475 nM in experiment [3]; 280 nM in experiment [4]; 307 nM in [5]; 0.467 µM in experiment [6]. Moreover, the GI50 in [7] was 255 nM; in [8] it was 0.462 µM; in experiment [9], 1110 nM; in [10] it was 0.383 µM. For the same compound, the total growth inhibition concentration (TGI) was determined as 2.95 µM in experiment [1]; 1.71 µM in experiment [2]; 0.91 µM in experiment [3]; 0.718 µM in experiment [4]; 0.872 µM in [5]; 0.973 µM in experiment [6]. The concentration for total growth inhibition (TGI) came out at 0.556 µM in experiment [7], 1.16 µM in experiment [8], 2.32 µM in experiment [9] and 1.68 µM in experiment [10].
As to `Nc1cc2c(cc1Br)[nH]c(=O)c1ccccc12`, the GI50 in [1] is 3710 nM; in experiment [2], 10.2 µM; in experiment [3], 15100 nM; in experiment [4] it was 3810 nM; in experiment [5] it was 1830 nM; in experiment [6], 3.4 µM. The GI50 in experiment [7] is 2680 nM; in [8], 5.47 µM; in experiment [9], 6020 nM; in experiment [10], 5.19 µM. For the same compound, the TGI amounted to 13.3 µM in experiment [1]; 38.4 µM in experiment [2]; 49.3 µM in experiment [3]; 41.8 µM in [4]; 11.4 µM in experiment [5]; 11.2 µM in experiment [6]. Moreover, the TGI was determined as 13.8 µM in experiment [7], 19.8 µM in [8], 20.1 µM in [9] and 42.3 µM in [10].
As to `COC(=O)C1=COC(C)C2CN3CCc4c([nH]c5ccccc45)C3CC12` (stereo not given), the concentration for total growth inhibition (TGI) in experiment [1] was > 100 µM; in [2], > 100 µM; in experiment [3], 59.5 µM and > 100 µM; in experiment [4], 77.4 µM and > 100 µM; in experiment [5] it was > 100 µM; in [6] it was 42.6 µM and > 100 µM. In addition, the concentration for total growth inhibition (TGI) was 38 µM and > 100 µM in [7]; 78.5 µM and > 100 µM in experiment [8]; > 100 µM in experiment [9]; 56 µM and > 100 µM in experiment [10]. Besides, the GI50 in experiment [2] is 30.6 µM and 72.9 µM; in [3], 22400 nM and > 100000 nM; in [4], 18300 nM and > 100000 nM; in [5] it was 32100 nM and > 100000 nM; in [6] it was 17.8 µM and > 100 µM; in experiment [7] it was 17900 nM and > 100000 nM. Further, the GI50 in [8] was 23.1 µM and 91.2 µM; in experiment [9] it was 24400 nM and > 100000 nM; in experiment [10], 14.6 µM and 69 µM.
Turning to `COc1cc(/C=C\c2cc(OC)c(OC)c(OC)c2)cc(N/C=C\C(=O)c2c[nH]c3ccccc23)c1OC`, the GI50 in experiment [1] was 11600 nM; in experiment [2], 7.94 µM; in [3], 1700 nM; in [4], 1500 nM; in experiment [5] it was 720 nM; in experiment [6] it was 3.69 µM. Moreover, the GI50 in [7] is 2440 nM; in experiment [8], 1.76 µM; in [9], 1390 nM; in experiment [10], 0.627 µM. Also, the total growth inhibition concentration (TGI) in [1] amounted to 28.1 µM; in [2] it was 22.9 µM; in [3], 3.19 µM; in experiment [4], 4.5 µM; in experiment [5] it was 3.15 µM; in [6] it was 14.1 µM. The TGI in [7] worked out at 7.13 µM; in experiment [8], 3.7 µM; in experiment [9], 3.33 µM; in [10] it was 2.93 µM.
As for `O=C(/C=C/c1ccccc1)c1ccccc1`, the concentration for total growth inhibition (TGI) in experiment [1], in [2], in experiment [3], in experiment [4], in [5] and in experiment [6] was > 10 µM in each case. The total growth inhibition concentration (TGI) is > 10 µM in experiment [7], > 10 µM in experiment [8], > 10 µM in experiment [9] and > 7.63 µM in experiment [10].
`CCCc1cc(=O)n2c(C(=O)Nc3ccc(Cl)cc3C)c(C(=O)Nc3ccc(F)cc3)sc2n1`: the GI50 in experiment [1] was 1540 nM; in experiment [2], 31.7 µM; in experiment [3] it was 6020 nM; in experiment [4] it was 166 nM; in experiment [5], 4670 nM; in experiment [6], 13.5 µM. The GI50 in experiment [8] was 9.18 µM; in experiment [9], 2020 nM; in experiment [10], 2.7 µM. Also, the concentration for total growth inhibition (TGI) in experiment [1] was 3.95 µM; in experiment [2], 131 µM; in [3] it was 22.7 µM; in experiment [4], 0.989 µM; in [5], 33.9 µM; in experiment [6] it was > 150 µM. The values for the TGI in [8], in experiment [9] and in experiment [10] were 67.5 µM, 12.1 µM and 6.88 µM, respectively.
On to `COc1ccc(-c2nn(-c3cccc(Cl)c3)cc2-c2cc(-c3ccccc3)[nH]c(=O)c2C#N)cc1`, for which the GI50 in experiment [1] was 1170 nM; in experiment [3], 1010 nM; in [4] it was 654 nM; in [5], 9020 nM; in [6] it was > 50 µM; in [7] it was 7940 nM. The GI50 in experiment [8] was 3.59 µM; in experiment [9], 2260 nM; in experiment [10], 45.6 µM. Further, the TGI in experiment [1] is 2.87 µM; in experiment [3], 2.75 µM; in experiment [4], 2.14 µM; in experiment [5], > 50 µM; in [6] it was > 50 µM; in experiment [7] it was > 50 µM. In addition, the TGI was 20.8 µM in experiment [8], 11.1 µM in [9] and > 50 µM in experiment [10].
`CC1(C)CN=C(NN=C(/C=C/c2ccc(C(F)(F)F)cc2)/C=C/c2ccc(C(F)(F)F)cc2)NC1`: the GI50 is 1930 nM in experiment [1]; 1.72 µM in [2]; 1850 nM in [3]; 1100 nM in experiment [4]; 1400 nM in [5]; 1.21 µM in [6]. The GI50 in experiment [7] was 1460 nM; in experiment [8], 1.25 µM; in experiment [9], 1720 nM; in [10], 0.466 µM. Also, the TGI is 3.56 µM in experiment [1]; 3.28 µM in experiment [2]; 3.45 µM in experiment [3]; 2.54 µM in experiment [4]; 2.92 µM in experiment [5]; 2.45 µM in experiment [6]. The TGI was determined as 3.33 µM in experiment [7], 2.57 µM in experiment [8], 3.31 µM in experiment [9] and 2.3 µM in [10].
